In data set [1] the test system is CCRF-CEM. The data set can be described thus: Cytotoxicity against human CEM cells assessed as cell death incubated at 50 uM for 20 hrs measured by DNS assay. Format: functional.
Data set [2] has as its system HeLa. Description: Cytotoxicity against human HeLa cells assessed as cell death incubated at 10 uM for 20 hrs measured by DNS assay. It is filed as functional.
Data set [3] can be described thus: Toxicity in SCID mouse xenografted with human CEM cells assessed as behavioral changes at 50 mg/kg, ip. To be noted: in vivo. Format: organism-based, CCRF-CEM. For orientation: A xenograft is tissue or cells of one species grown in another, often human tumour cells in immunodeficient mice.
Data set [4] concerns the target T1, Histone deacetylase 4 (Homo sapiens, UniProt P56524). The data set can be described thus: Inhibition of recombinant human HDAC4 using Boc-Lys (trifluoroacetyl)-AMC as substrate preincubated for 1 hr followed by substrate addition and measured after 1 hr by micro plate reader analysis.
In the next data set the target is T2, Histone deacetylase 8 (Homo sapiens, UniProt Q9BY41).
T2 sequence (Q9BY41 whole entry): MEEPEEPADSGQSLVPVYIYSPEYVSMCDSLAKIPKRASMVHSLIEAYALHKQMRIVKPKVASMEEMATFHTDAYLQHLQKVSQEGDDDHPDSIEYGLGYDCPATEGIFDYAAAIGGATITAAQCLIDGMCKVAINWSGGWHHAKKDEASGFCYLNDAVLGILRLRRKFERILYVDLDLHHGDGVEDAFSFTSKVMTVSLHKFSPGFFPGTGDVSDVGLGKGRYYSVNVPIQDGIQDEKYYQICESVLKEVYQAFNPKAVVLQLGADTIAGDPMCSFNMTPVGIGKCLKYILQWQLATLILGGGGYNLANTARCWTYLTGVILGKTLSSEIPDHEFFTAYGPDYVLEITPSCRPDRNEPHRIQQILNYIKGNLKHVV
Description: Inhibition of recombinant human HDAC8 using Boc-Lys (trifluoroacetyl)-AMC as substrate preincubated for 1 hr followed by substrate addition and measured after 1 hr by micro plate reader analysis.

For data set [5], the system named is HeLa. The data set can be described thus: Cytotoxicity against human HeLa cells assessed as cell death incubated for 20 hrs measured by DNS assay. It is filed as functional.
Data set [6] has as its system HS27. Description: Cytotoxicity against human HS-27 cells assessed as cell death incubated for 20 hrs measured by DNS assay. It is filed as toxicity, cell-based. To be noted: hs27, 20 h.
Data set [7] can be described thus: Toxicity in SCID mouse xenografted with human CEM cells assessed as effect on body weight at 50 mg/kg, ip. It is filed as organism-based, CCRF-CEM. To be noted: in vivo.
The subject of data set [8] is SH-SY5Y. Description: Cytotoxicity against human SH-SY5Y cells assessed as cell death incubated for 20 hrs measured by DNS assay. Format: functional.
The subject of data set [9] is CCRF-CEM. The data set can be described thus: Cytotoxicity against human CEM cells assessed as cell death incubated for 20 hrs measured by DNS assay. Format: functional.
Data set [10] relates to Ramos. The data set can be described thus: Cytotoxicity against human Ramos cells assessed as cell death incubated for 20 hrs measured by DNS assay. It is filed as functional.
The test system of data set [11] is MDA-MB-231. The data set can be described thus: Cytotoxicity against human MDA-MB-231 cells assessed as cell death incubated for 20 hrs measured by DNS assay. Format: functional.
Data set [12] can be described thus: Selectivity index, ratio of CC50 for human HS-27 cells to CC50 for human SH-SY5Y cells. Format: functional.
The test system of data set [13] is SH-SY5Y. The data set can be described thus: Cytotoxicity against human SH-SY5Y cells assessed as cell death incubated at 10 uM for 20 hrs measured by DNS assay. Format: functional.
The subject of data set [14] is MDA-MB-231. Description: Cytotoxicity against human MDA-MB-231 cells assessed as cell death incubated at 10 uM for 20 hrs measured by DNS assay. Format: functional.
Data set [15] is described as follows: Selectivity index, ratio of CC50 for human HS-27 cells to CC50 for human Ramos cells. Format: functional.
The nature of data set [16]: Selectivity index, ratio of CC50 for human HS-27 cells to CC50 for human MDA-MB-231 cells. Format: functional.
Data set [17] can be described thus: Selectivity index, ratio of CC50 for human HS-27 cells to CC50 for human HeLa cells. Format: functional.
Data set [18] has as its system CCRF-CEM. Description: Cytotoxicity against human CEM cells assessed as cell death incubated at 10 uM for 20 hrs measured by DNS assay. It is filed as functional.
In data set [19] the test system is Ramos. The data set can be described thus: Cytotoxicity against human Ramos cells assessed as cell death incubated at 10 uM for 20 hrs measured by DNS assay. Format: functional.
Data set [20] concerns the target T3, Histone deacetylase 8 (Homo sapiens) (UniProt Q9BY41).
T3 sequence (whole entry): T2 sequence (Q9BY41 whole entry)
The data set can be described thus: Inhibition of recombinant human HDAC8 using Boc-Lys (trifluoroacetyl)-AMC as substrate ay 35 uM preincubated for 1 hr followed by substrate addition and measured after 1 hr by micro plate reader analysis.

Data set [21] deals with T1, Histone deacetylase 4. The data set can be described thus: Inhibition of recombinant human HDAC4 using Boc-Lys (trifluoroacetyl)-AMC as substrate ay 35 uM preincubated for 1 hr followed by substrate addition and measured after 1 hr by micro plate reader analysis.
The next data set concerns HL-60. Description: Cytotoxicity against human HL-60 cells assessed as cell death incubated at 10 uM for 20 hrs measured by DNS assay. It is filed as functional.
Data set [22] can be described thus: Toxicity in SCID mouse xenografted with human CEM cells assessed as effect on body weight at 20 mg/kg, ip. Format: organism-based, CCRF-CEM. The conditions noted are these: in vivo.
The subject of data set [23] is HS27. Description: Cytotoxicity against human HS-27 cells assessed as cell death incubated at 10 uM for 20 hrs measured by DNS assay. The conditions noted are these: hs27, 20 h. Format: toxicity, cell-based.
A short description of data set [24]: Selectivity index, ratio of CC50 for human HS-27 cells to CC50 for human CEM cells. Format: functional.

Active and inactive are the calls of the source. The rule behind the calls is not given here. Some results are limits rather than exact numbers.

T1 sequence (P56524 whole entry): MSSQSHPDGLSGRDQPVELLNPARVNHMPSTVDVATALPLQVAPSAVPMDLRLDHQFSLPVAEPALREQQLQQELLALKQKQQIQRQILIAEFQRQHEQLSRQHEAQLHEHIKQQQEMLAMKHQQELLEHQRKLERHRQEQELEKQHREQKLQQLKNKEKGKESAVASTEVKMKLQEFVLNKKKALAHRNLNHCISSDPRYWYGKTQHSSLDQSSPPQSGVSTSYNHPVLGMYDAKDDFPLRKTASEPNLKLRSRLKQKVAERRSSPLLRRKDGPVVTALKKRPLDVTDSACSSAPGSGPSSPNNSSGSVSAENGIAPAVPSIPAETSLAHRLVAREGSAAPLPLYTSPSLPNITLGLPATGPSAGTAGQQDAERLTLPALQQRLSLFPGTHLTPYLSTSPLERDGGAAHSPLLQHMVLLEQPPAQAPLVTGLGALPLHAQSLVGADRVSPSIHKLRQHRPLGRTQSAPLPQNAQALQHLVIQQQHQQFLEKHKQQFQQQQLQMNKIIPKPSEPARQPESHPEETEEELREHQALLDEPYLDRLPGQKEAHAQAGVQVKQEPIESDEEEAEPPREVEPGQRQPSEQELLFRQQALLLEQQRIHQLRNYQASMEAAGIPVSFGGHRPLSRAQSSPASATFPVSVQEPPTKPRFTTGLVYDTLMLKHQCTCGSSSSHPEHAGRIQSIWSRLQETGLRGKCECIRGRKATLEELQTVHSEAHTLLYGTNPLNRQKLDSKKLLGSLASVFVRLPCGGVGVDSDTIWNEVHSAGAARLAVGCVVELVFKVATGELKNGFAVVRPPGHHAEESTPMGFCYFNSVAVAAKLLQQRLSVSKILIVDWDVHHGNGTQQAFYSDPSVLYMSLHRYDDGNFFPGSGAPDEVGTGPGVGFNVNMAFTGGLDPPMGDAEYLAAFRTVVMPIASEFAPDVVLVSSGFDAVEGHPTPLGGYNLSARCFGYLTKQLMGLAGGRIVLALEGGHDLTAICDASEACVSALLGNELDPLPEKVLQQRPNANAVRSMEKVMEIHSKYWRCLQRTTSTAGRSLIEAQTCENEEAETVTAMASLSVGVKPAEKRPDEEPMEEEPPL

`CCc1ccc(CCOc2ccc(CC3SC(=O)NC3=O)cc2)nc1` (configuration not stated) [PIOGLITAZONE]: the Activity with CCRF-CEM [1] and in the data set with HeLa [2] was 0% each time.

Turning to `Cc1ccc(NC(=O)COc2ccc3cc(/C=C4/SC(=O)NC4=O)ccc3c2)cc1`, the Activity result in data set [3] and in [7] was “Non-Toxic” in each case. The IC50 (usually the concentration that gives 50% inhibition) at Histone deacetylase 4 [4] came to 1.7 µM; at Histone deacetylase 8, 9 µM. The CC50 – broadly, the concentration at which the toxic effect on the cells reaches its halfway point – with HeLa [5] was determined as 10.3 µM; in the data set on HS27 [6], 40.2 µM; in the data set on SH-SY5Y [8], 49.5 µM; with CCRF-CEM [9], 2.8 µM; with Ramos [10], 7 µM.

Turning to `O=C(COc1ccc2cc(/C=C3/SC(=O)NC3=O)ccc2c1)Nc1ccccc1Oc1ccccc1`, the CC50 in the data set on MDA-MB-231 [11] was 10.3 µM; with HeLa [5], 10.2 µM; with SH-SY5Y [8], 52.3 µM; in the data set with Ramos [10] it was 10 µM. For the same compound, the IC50 on Histone deacetylase 4 [4] was 5.2 µM; on Histone deacetylase 8, over 50 µM. Further, the “Selectivity Index” value in data set [12], in data set [15], in [16] and in data set [17] was over 10 throughout. Also, the Activity was over 40% in the data set with SH-SY5Y [13]; over 40% with MDA-MB-231 [14]; 40.24% with CCRF-CEM [18]; over 40% in the data set on Ramos [19]; 0% in the data set with HL-60. In addition, the inhibition result (in [20]; at Histone deacetylase 4 [21]) was “Active” in each case.

As for `COc1cccc2c1C(=O)c1c(O)c3c(c(O)c1C2=O)C[C@@](O)(C(=O)CO)C[C@@H]3O[C@H]1C[C@H](N)[C@H](O)[C@H](C)O1` [DOXORUBICIN], in data set [22], the Activity entry is given as “Non-Toxic”.

With `COc1cccc(NC(=O)COc2ccc3cc(/C=C4/SC(=O)NC4=O)ccc3c2)c1`, the CC50 is 9.8 µM in the data set on MDA-MB-231 [11], 10.4 µM in the data set with HeLa [5], 10.7 µM with CCRF-CEM [9] and 9.3 µM with Ramos [10]. Further, the IC50 at Histone deacetylase 4 [4] came to 1.6 µM; on Histone deacetylase 8, 7.6 µM. In addition, the Activity is reported as 0% in the data set with SH-SY5Y [13]; over 40% with MDA-MB-231 [14]; 24.69% with HS27 [23]; over 40% with CCRF-CEM [18]; over 40% in the data set with Ramos [19]; 0% with HL-60. For the same compound, the “Selectivity Index” value in [15], in data set [16], in data set [17] and in data set [24] was over 10 each time. In addition, the inhibition result (in data set [20]; on Histone deacetylase 4 [21]) was “Active” throughout.
